A short description of series [1]: Transferability into brain and clearance. To be noted: intravenous injection, rats. It counts as in vivo, male Wistar rats. The procedure: Using Compound 1 (Example 10) and Compound 2 (Example 11), a time course change of radioactive accumulation in brain of male Wistar rats (7-week old) was measured.
A diethyl ether solution of Compound 1 (Example 10) prepared in Example 3, a diethyl ether solution of Compound 2 (Example 11) prepared in Example 6 and a diethyl ether solution of [^123I]-IMPY (Comparative Example 5) prepared in Reference Example 1 were each diluted with 10 mg/mL ascorbic acid-containing physiological saline solution to adjust to a radioactive concentration of 8-12 MBq/mL. 0.05 mL each of the prepared sample solutions was injected under thiopental anesthesia into the tail vein of the rats. The rats were sacrificed by bleeding from abdominal artery, and brains were removed and subjected to measurement of mass of brains and further subjected to measurement of radioactivity (hereinafter referred to as A in this Example) with a single channel analyzer (detector type: SP-20 manufactured by OHYO KOKEN KOGYO Co., Ltd.) 2, 5, 30 and 60 minutes after the injection. Further, the radioactivity level of the rest of the whole body was measured in the same manner as above (hereinafter referred to as B in this Example). Using these measurement results, radioactive distribution per unit weight of brain (% ID/g) at the respective time points were calculated in accordance with the following formula (3).
Three animals were used for the experiment at the respective time points.
Using Compound 4 and Compound 6, a time course change of radioactive accumulation in brain of male Wistar rats (7-week old) was measured.
Compound 4 (Example 22), Compound 6 (Example 23) and a solution of [^123I]-IMPY (Comparative Example 8) prepared above in Reference Example 1 were each diluted with a 10 mg/mL ascorbic acid-containing physiological saline solution to prepare solutions (20-31 MBq/mL in radioactive concentration). 0.05 mL each of the prepared sample solutions was injected under thiopental anesthesia into the tail vein of the respective Wistar rat (7-week old). The rats were sacrificed by bleeding from abdominal artery, and brains were removed and subjected to measurement of mass of brains and further subjected to measurement of radioactivity (hereinafter referred to as A in this Example) with a single channel analyzer (detector type: SP-20 manufactured by OHYO KOKEN KOGYO Co., Ltd.) 2, 5, 30 and 60 minutes after the injection. Further, the radioactivity level of the rest of the whole body was measured in the same manner as above (hereinafter referred to as B in this Example). Using these measurement results, radioactive distribution per unit weight of brain (% ID/g) at the respective time points were calculated in accordance with the following formula (5).

The nature of series [2]: Partition coefficient based on the octanol extraction method. The format is physicochemical. The settings on record: octanol / 10 mmol/L phosphate buffer (pH 7.4). The procedure: Partition coefficients based on the octanol extraction method (hereinafter referred to as log Poctanol) were measured, which are generally known as an indicator of permeability of compounds through the blood-brain barrier (hereinafter referred to as BBB).
A diethyl ether solution of Compound 1 prepared in Example 3 (Example 8), a diethyl ether solution of Compound 2 prepared in Example 6 (Example 9), and a diethyl ether solution of [^123I]-IMPY prepared in Reference Example 1 (Comparative Example 4) were each diluted with 10 mg/mL ascorbic acid-containing physiological saline solution, and adjusted to a radioactive concentration of 20-30 MBq/mL. To 2 mL of octanol, 10 μL each of the prepared sample solutions was added, 2 mL of 10 mmol/L phosphate buffer (pH 7.4) was added, followed by stirring for 30 seconds. After the mixture was centrifuged with a low-speed centrifuge (2000 rpm×60 min.), the octanol layer and the water layer were sampled each in an amount of 1 mL, and subjected to measurement of radioactivity count with an autowell gamma system (Type: ARC-301B, manufactured by Aloka). Using the obtained radioactivity count, log Poctanol was calculated in accordance with the equation (2).
A diethyl ether solution (Example 20) of Compound 4 prepared in Example 16, a diethyl ether solution (Example 21) of Compound 6 prepared in Example 19, and a diethyl ether solution (Comparative Example 7) of [^123I]-IMPY were each diluted with a 10 mg/mL ascorbic acid-containing physiological saline solution to adjust to a radioactive concentration of 20-30 MBq/mL. To 2 mL of octanol, 10 μL each of the prepared sample solution was added, and 2 mL of 10 mmol/L phosphate buffer (pH 7.4) was further added, followed by stirring for 30 seconds. After the mixture was centrifuged with a low-speed centrifuge (2000 rpm×60 min.), the octanol layer and the water layer were sampled each in an amount of 1 mL, and subjected to measurement of radioactivity count with an autowell gamma system (Type: ARC-301B, manufactured by Aloka). Using the obtained radioactivity count, logPoctanol was calculated in accordance with the equation (4).

Regarding “2-(4′-ethoxyphenyl)-6-[^123I]iodoimidazo[1,2-a]pyridine [Compound 2]”, the “Radioactive distribution per unit weight of brain” value in series [1] (After 2 min., Table 5) worked out at 0.89 % ID/g; in series [1] (After 5 min., Table 5) it was 0.66 % ID/g; in series [1] (After 30 min., Table 5), 0.13 % ID/g; in series [1] (After 60 min., Table 5), 0.04 % ID/g. Moreover, the logPoctanol value in series [2] (Table 4, Examples 8-9) worked out at 2.1.
As for “2-[4′-(2″-hydroxyethoxy)phenyl]-6-[^123I]iodoimidazo[1,2-a]pyridine [Compound 1]”, the “Radioactive distribution per unit weight of brain” value is reported as 0.90 % ID/g in series [1] (After 2 min., Table 5); 0.52 % ID/g in series [1] (After 5 min., Table 5); 0.06 % ID/g in series [1] (After 30 min., Table 5); 0.01 % ID/g in series [1] (After 60 min., Table 5). The substance further showed a logPoctanol value in series [2] (Table 4, Examples 8-9) of 1.8.
Consider “2-[4′-(3″-hydroxypropoxy)phenyl]-6-[^123I]iodoimidazo[1,2-a]pyridine [Compound 6]”, for which the “Radioactive distribution per unit weight of brain” value in series [1] (After 2 min., Table 7) was determined as 0.81 % ID/g; in series [1] (After 5 min., Table 7), 0.56 % ID/g; in series [1] (After 30 min., Table 7), 0.07 % ID/g; in series [1] (After 60 min., Table 7), 0.02 % ID/g. In series [2] (Table 6, Examples 20-21), this substance showed a logPoctanol value of 2.1.

Source of the values: patent publication US20100249419A1, “UTILIZATION OF NOVEL COMPOUNDS WITH AMYLOID AFFINITY AND METHOD OF PRODUCING THE SAME” (NIHON MEDI-PHYSICS CO., LTD., priority 2007, published 2010).
